# Source: PMC5706432, “Host-guest interaction of β-cyclodextrin with isomeric ursolic acid and oleanolic acid: physicochemical characterization and molecular modeling study” (Journal of Biomedical Research, 2017)
# Assay: UV-vis absorption, stability constant by modified Benesi-Hildebrand equation
# Type: physicochemical
# Settings: UV absorption spectra, ethanol/water (50%, v/v), 1:1 host-guest complex assumed
# Procedure: Furthermore, absorption spectra obtained with various concentrations of β-CD (0 to 1.44 mmol/L) and added to a constant drug (0.03753 mmol/L UA or 0.038715 mmol/L OA) concentration in ethanol/water (50%, v/v) were scanned by the UV spectrophotometry (Shimadzu UV-2401 visible spectrophotometer, Shimadzu Corp., Tokyo, Japan). The stability constant was calculated according to the modified Benesi-Hildebrand equation Eq. (1) assuming the formation of a 1:1 host-guest complex^[[14]^].
# (1) 1/ΔA=1/KΔε[D]01/[CD]0+1/Δε[D]0 Where ΔA was the change in absorbance of drugs at λmax in the presence and absence of β-CD. [D]0 and [CD]0 were the total concentration of added drug and β-CD, respectively. Δε represented the difference in molar absorptivities between the free drug and the inclusion complex, and K was the stability constant.
row,Structure (SMILES),stability constant K
1,"CC1(C)CC[C@]2(C(=O)O)CC[C@]3(C)C(=CC[C@@H]4[C@@]5(C)CC[C@H](O)C(C)(C)[C@@H]5CC[C@]43C)[C@@H]2C1 [OA, oleanolic acid]",5157 L/mol
2,"C[C@H]1[C@H](C)CC[C@]2(C(=O)O)CC[C@]3(C)C(=CC[C@@H]4[C@@]5(C)CC[C@H](O)C(C)(C)[C@@H]5CC[C@]43C)[C@H]12 [UA, ursolic acid]",5642 L/mol
